Experimental data taken from paper PMC5386672, “Structure-guided design of purine-based probes for selective Nek2 inhibition” (Oncotarget, 2016).

Key:
[1] = target: T1, Nek2 (Homo sapiens, UniProt P51955); assay: Nek2 Caliper kinase inhibition assay; assay type: biochemical; settings: 30 μM ATP; for IC50: Caliper assay; for inhibition at 50 µM: @ 50 μM compound
T1 construct: purchased Invitrogen
T1 sequence (P51955 1-445): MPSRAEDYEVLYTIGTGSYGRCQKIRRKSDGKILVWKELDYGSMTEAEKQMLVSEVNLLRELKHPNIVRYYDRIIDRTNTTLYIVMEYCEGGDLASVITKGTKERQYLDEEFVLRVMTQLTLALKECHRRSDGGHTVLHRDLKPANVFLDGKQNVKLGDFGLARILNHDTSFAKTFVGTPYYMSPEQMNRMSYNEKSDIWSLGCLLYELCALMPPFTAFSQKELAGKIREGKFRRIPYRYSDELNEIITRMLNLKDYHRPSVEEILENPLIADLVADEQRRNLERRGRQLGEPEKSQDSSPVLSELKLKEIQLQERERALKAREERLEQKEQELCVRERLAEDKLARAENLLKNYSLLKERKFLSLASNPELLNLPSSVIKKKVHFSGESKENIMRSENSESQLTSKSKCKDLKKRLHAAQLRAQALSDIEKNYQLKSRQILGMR

[2] = target: CDK2 (Homo sapiens, UniProt P24941); assay: CDK2 kinase inhibition assay; assay type: biochemical; settings: for IC50: 12.5 μM ATP; for selectivity for CDK2 over Nek2: from IC50 values

Question: What does the source list for CCC(C)Oc1nc(Nc2cccc(CC(=O)NCCCN(C)C)c2)nc2[nH]cnc12 (racemic) [Compound 60, (±)-2-[3-(6-sec-Butoxy-9H-purin-2-ylamino)phenyl]-N-(3-dimethylaminopropyl)acetamide]?
Answer: IC50 [1]: 4.9 µM; IC50 [2]: 410 nM; selectivity for CDK2 over Nek2 [2]: 10 fold; melting point: 97 to 98 °C

Question: For c1ccc(Nc2nc(OCC3CCCCC3)c3nc[nH]c3n2)cc1 [2-aminophenyl-6-(cyclohexylmethoxy)-9H-purine], which IC50 [1] is on record?
Answer: 22 µM

Question: For NS(=O)(=O)c1ccc(Nc2nc(OCC3CCCCC3)c3nc[nH]c3n2)cc1 [Compound 6], which IC50 [1] is on record?
Answer: 12 µM

Question: Which IC50 [1] does the source give for CCOc1nc(Nc2cccc(CC(=O)NCCCN(C)C)c2)nc2[nH]cnc12 [Compound 7] here?
Answer: 0.89 µM

Question: What about the IC50 [2] of the same compound?
Answer: 5600 nM

Question: Which IC50 [1] does the source give for CNC(=O)c1cccc(Nc2nc(OCC3CCCCC3)c3nc[nH]c3n2)c1 [Compound 10, 3-(6-Cyclohexylmethoxy-9H-purin-2-ylamino)-N-methylbenzamide] here?
Answer: 15 µM

Question: What about the IC50 [2] of the same compound?
Answer: 830 nM

Question: And the melting point?
Answer: 252 to 254 °C

Question: For CN(C)C(=S)c1cccc(Nc2nc(OCC3CCCCC3)c3nc[nH]c3n2)c1 [Compound 12, 3-(6-Cyclohexylmethoxy-9H-purin-2-ylamino)-N,N-dimethylthiobenzamide], which IC50 [1] is on record?
Answer: 5.2 µM

Question: And the IC50 [2]?
Answer: 5700 nM

Question: And the melting point?
Answer: 231 to 232 °C (dec.)

Question: For NC(=S)c1cccc(Nc2nc(OCC3CCCCC3)c3nc[nH]c3n2)c1 [Compound 13, 3-(6-Cyclohexylmethoxy-9H-purin-2-ylamino)thiobenzamide], which inhibition at 50 µM [1] is on record?
Answer: 46%

Question: And the IC50 [2]?
Answer: 330 nM

Question: What about the melting point of the same compound?
Answer: 148 to 149 °C (dec.)

Question: What does the source list for CN(C)S(=O)(=O)c1cccc(Nc2nc(OCC3CCCCC3)c3nc[nH]c3n2)c1 [Compound 14, 3-(6-Cyclohexylmethoxy-9H-purin-2-ylamino)-N,N-dimethylbenzenesulfonamide]?
Answer: inhibition at 50 µM [1]: 40%; IC50 [2]: 3500 nM; melting point: 143 to 145 °C

Question: Which IC50 [1] does the source give for CNC(=O)Cc1cccc(Nc2nc(OCC3CCCCC3)c3nc[nH]c3n2)c1 [Compound 15] here?
Answer: 1.3 µM

Question: What about the IC50 [2] of the same compound?
Answer: 320 nM

Question: What about the melting point of the same compound?
Answer: 176 to 177 °C

Question: Which IC50 [1] does the source give for O=C(NCCN1CCOCC1)Nc1ccc(Nc2nc(OCC3CCCCC3)c3nc[nH]c3n2)cc1 [Compound 16, 1-(4-(6-(Cyclohexylmethoxy)-9H-purin-2-ylamino)phenyl)-3-(2-morpholinoethyl)urea] here?
Answer: 2.2 µM

Question: And the IC50 [2]?
Answer: 1100 nM

Question: And the melting point?
Answer: 161 to 163 °C

Question: Which results are given for O=C(NCCN1CCCCC1)Nc1ccc(Nc2nc(OCC3CCCCC3)c3nc[nH]c3n2)cc1 [Compound 17, 1-(4-(6-(Cyclohexylmethoxy)-9H-purin-2-ylamino)phenyl)-3-(2-(piperidin-1-yl)ethyl)urea]?
Answer: IC50 [1]: 1.1 µM; IC50 [2]: 860 nM

Question: With CN(C)CCCNC(=O)Nc1ccc(Nc2nc(OCC3CCCCC3)c3nc[nH]c3n2)cc1 [Compound 18, 1-(4-(6-(Cyclohexylmethoxy)-9H-purin-2-ylamino)phenyl)-3-(3-(dimethylamino)propyl)urea] as the compound, how does the IC50 [1] read?
Answer: 1.2 µM

Question: What about the IC50 [2] of the same compound?
Answer: 720 nM

Question: And the melting point?
Answer: 110 to 112 °C

Question: Which IC50 [1] does the source give for O=[N+]([O-])c1ccc(Nc2nc(OCC3CCCCC3)c3nc[nH]c3n2)cc1 [Compound 19, 6-(Cyclohexylmethoxy)-N-(4-nitrophenyl)-9H-purin-2-amine] here?
Answer: > 50 µM

Question: What about the IC50 [2] of the same compound?
Answer: 1900 nM

Question: What about the melting point of the same compound?
Answer: 180 to 181 °C

Question: What does the source list for O=[N+]([O-])c1cccc(Nc2nc(OCC3CCCCC3)c3nc[nH]c3n2)c1 [Compound 20, 6-(Cyclohexylmethoxy)-N-(3-nitrophenyl)-9H-purin-2-amine]?
Answer: IC50 [1]: > 50 µM; IC50 [2]: 890 nM; melting point: 217 to 218 °C

Question: What does the source list for Nc1ccc(Nc2nc(OCC3CCCCC3)c3[nH]cnc3n2)cc1 [Compound 21, 2-(4-Aminophenyl)amino-6-cyclohexylmethoxy-purine]?
Answer: IC50 [1]: 6.3 µM; IC50 [2]: 220 nM; melting point: 228 to 230 °C

Question: For Nc1cccc(Nc2nc(OCC3CCCCC3)c3[nH]cnc3n2)c1 [Compound 22, 2-(3-Aminophenyl)amino-6-cyclohexylmethoxy-purine], which IC50 [1] is on record?
Answer: 5.9 µM

Question: What about the IC50 [2] of the same compound?
Answer: 700 nM

Question: And the melting point?
Answer: 117 to 118 °C (dec.)

Question: Which IC50 [1] does the source give for O=C(O)c1cccc(Nc2nc(OCC3CCCCC3)c3nc[nH]c3n2)c1 [Compound 23, 3-(6-Cyclohexylmethoxy-9H-purin-2-ylamino)benzoic acid] here?
Answer: 4.3 µM

Question: What about the IC50 [2] of the same compound?
Answer: 990 nM

Question: And the melting point?
Answer: 182 to 184 °C (dec.)

Question: For CC(=O)Nc1cccc(Nc2nc(OCC3CCCCC3)c3nc[nH]c3n2)c1 [Compound 27, N-(3-(6-(Cyclohexylmethoxy)-9H-purin-2-ylamino)phenyl)acetamide], which IC50 [1] is on record?
Answer: 8.3 µM

Question: What about the IC50 [2] of the same compound?
Answer: 880 nM

Question: Which results are given for CC(C)(C)C(=O)Nc1ccc(Nc2nc(OCC3CCCCC3)c3nc[nH]c3n2)cc1 [Compound 28, N-(4-(6-(Cyclohexylmethoxy)-9H-purin-2-ylamino)phenyl)pivalamide]?
Answer: IC50 [1]: 24 µM; IC50 [2]: 9700 nM

Question: Which inhibition at 50 µM [1] does the source give for O=C(Nc1ccc(Nc2nc(OCC3CCCCC3)c3nc[nH]c3n2)cc1)c1ccccc1 [Compound 29, N-(4-(6-(Cyclohexylmethoxy)-9H-purin-2-ylamino)phenyl)benzamide] here?
Answer: 36%

Question: What about the IC50 [2] of the same compound?
Answer: 2900 nM

Question: For O=C(Nc1ccc(Nc2nc(OCC3CCCCC3)c3nc[nH]c3n2)cc1)c1ccncc1 [Compound 30, N-[4-(6-Cyclohexylmethoxy-9H-purin-2-ylamino)phenyl]isonicotinamide], which inhibition at 50 µM [1] is on record?
Answer: 51%

Question: And the IC50 [2]?
Answer: 2200 nM

Question: And the melting point?
Answer: 248 to 250 °C (dec.)

Question: Which IC50 [1] does the source give for NC(=O)Nc1cccc(Nc2nc(OCC3CCCCC3)c3nc[nH]c3n2)c1 [Compound 31, 1-(3-(6-(Cyclohexylmethoxy)-9H-purin-2-ylamino)phenyl) urea] here?
Answer: 3.6 µM

Question: What about the IC50 [2] of the same compound?
Answer: 380 nM

Question: What about the “selectivity for CDK2 over Nek2” value [2] of the same compound?
Answer: 10 fold

Question: What about the melting point of the same compound?
Answer: 193 to 194 °C

Question: For O=C(c1cccc(Nc2nc(OCC3CCCCC3)c3nc[nH]c3n2)c1)N1CCCCC1 [Compound 32, [3-(6-Cyclohexylmethoxy-9H-purin-2-ylamino)phenyl]piperidin-1-ylmethanone], which inhibition at 50 µM [1] is on record?
Answer: 57%

Question: And the IC50 [2]?
Answer: 18000 nM

Question: What about the melting point of the same compound?
Answer: 133 to 135 °C

Question: Which IC50 [1] does the source give for CN(C)CCCCNC(=O)c1cccc(Nc2nc(OCC3CCCCC3)c3nc[nH]c3n2)c1 [Compound 33, 3-(6-Cyclohexylmethoxy-9H-purin-2-ylamino)-N-(4-dimethylaminobutyl)benzamide] here?
Answer: 3.8 µM

Question: And the IC50 [2]?
Answer: 730 nM

Question: And the melting point?
Answer: 125 to 127 °C

Question: With CC(C)CNC(=O)Cc1cccc(Nc2nc(OCC3CCCCC3)c3nc[nH]c3n2)c1 [Compound 34, 2-[3-(6-Cyclohexylmethoxy-9H-purin-2-anilino)]-N-isobutylacetamide] as the compound, how does the inhibition at 50 µM [1] read?
Answer: 79%

Question: And the IC50 [2]?
Answer: 940 nM

Question: And the melting point?
Answer: 144 to 145 °C

Question: What does the source list for O=C(Cc1cccc(Nc2nc(OCC3CCCCC3)c3nc[nH]c3n2)c1)NC1CCCC1 [Compound 35]?
Answer: IC50 [1]: 4.1 µM; IC50 [2]: 1100 nM; melting point: 228 to 229 °C

Question: What does the source list for O=C(Cc1cccc(Nc2nc(OCC3CCCCC3)c3nc[nH]c3n2)c1)NC1CCCCC1 [Compound 36]?
Answer: IC50 [1]: 8.4 µM; IC50 [2]: 2100 nM; melting point: 226 to 227 °C

Question: For CN(C(=O)Cc1cccc(Nc2nc(OCC3CCCCC3)c3nc[nH]c3n2)c1)C1CCCCC1 [Compound 37], which inhibition at 50 µM [1] is on record?
Answer: 26%

Question: And the IC50 [2]?
Answer: 1600 nM

Question: What about the melting point of the same compound?
Answer: 134 to 135 °C

Question: Which IC50 [1] does the source give for CC(C)N(C(=O)Cc1cccc(Nc2nc(OCC3CCCCC3)c3nc[nH]c3n2)c1)C(C)C [Compound 38] here?
Answer: 21 µM

Question: What about the IC50 [2] of the same compound?
Answer: 3200 nM

Question: What about the melting point of the same compound?
Answer: 126 to 127 °C

Question: Which inhibition at 50 µM [1] does the source give for CCCNC(=O)Cc1cccc(Nc2nc(OCC3CCCCC3)c3nc[nH]c3n2)c1 [Compound 39] here?
Answer: 82%

Question: What about the IC50 [2] of the same compound?
Answer: 740 nM

Question: And the melting point?
Answer: 141 to 142 °C (dec.)

Question: For O=C(Cc1cccc(Nc2nc(OCC3CCCCC3)c3nc[nH]c3n2)c1)NCCCO [Compound 40], which IC50 [1] is on record?
Answer: 1.3 µM

Question: What about the IC50 [2] of the same compound?
Answer: 800 nM

Question: What about the melting point of the same compound?
Answer: 132 to 133 °C

Question: Which IC50 [1] does the source give for O=C(Cc1cccc(Nc2nc(OCC3CCCCC3)c3nc[nH]c3n2)c1)NCCCn1ccnc1 [Compound 41, 2-[3-(6-Cyclohexylmethoxy-9H-purin-2-ylamino)phenyl]-N-(3-imidazol-1-yl-propyl)acetamide] here?
Answer: 6.13 µM

Question: What about the IC50 [2] of the same compound?
Answer: 1600 nM

Question: And the melting point?
Answer: 192 to 193 °C

Question: Which inhibition at 50 µM [1] does the source give for CC(C)CCNC(=O)Cc1cccc(Nc2nc(OCC3CCCCC3)c3nc[nH]c3n2)c1 [Compound 44, 2-[3-(6-Cyclohexylmethoxy-9H-purin-2-ylamino)phenyl]-N-(3-methylbutyl)acetamide] here?
Answer: 29%

Question: What about the IC50 [2] of the same compound?
Answer: 3700 nM

Question: For CN(C)S(=O)(=O)Cc1cccc(Nc2nc(OCC3CCCCC3)c3nc[nH]c3n2)c1 [Compound 48, [3-(6-Cyclohexylmethoxy-9H-purin-2-ylamino)-phenyl]-N,N-dimethylmethanesulfonamide], which IC50 [1] is on record?
Answer: 0.83 µM

Question: And the IC50 [2]?
Answer: 770 nM

Question: What does the source list for O=S(=O)(Cc1cccc(Nc2nc(OCC3CCCCC3)c3nc[nH]c3n2)c1)N1CCCCC1 [Compound 49, 1-(3-(6-Cyclohexylmethoxy-9H-purin-2-ylamino)phenylmethanesulfonyl)piperidine]?
Answer: inhibition at 50 µM [1]: 53%; IC50 [2]: 1600 nM

Question: With CCOc1nc(Nc2cccc(CC(=O)NCCCN(C)C)c2)nc2[nH]cnc12 [Compound 59, N-(3-Dimethylaminopropyl)-2-[3-(6-ethoxy-9H-purin-2-ylamino)phenyl]acetamide] as the compound, how does the melting point read?
Answer: 178 to 179 °C
